Test system: uric acid in the serum of the mice
Test: Treatment of experimental uricemia: potassium oxonate-induced high serum uric acid in ICR mice
Type: in vivo
Details: potassium oxonate (400 mg/kg) + allopurinol 10 mg/kg, fed via feeding tube, sacrificed after one hour, oxonate alone 4.91 ± 0.08, saline control 3.51 ± 0.02
Description: Lactobacillus rhamnosus I21 was inoculated on an MRS plate and cultured at 37° C. for 3 days. Bacteria were scraped from the plate using a 1 μl sterile inoculation loop, inoculated into MRS broth, and grown at 37° C. for 1 day to prepare an inoculum. The inoculum (30 ml) was then added into 3 L MRS broth in a 5 L fermenter and grown at 37° C. for 2 days. The fermentation broth was centrifuged at 3000 rpm for 15 min. The supernatant was collected and lyophilized to produce the Lactobacillus rhamnosus I21 fermentation product.
ICR mice were used as experimental animals. Potassium oxonate, a uricase inhibitor, was used to induce a high level of uric acid in the serum of the mice. Mice were fasted for one hour and then fed saline or potassium oxonate (400 mg/kg) via a feeding tube. After one hour, potassium oxonate-treated mice were fed saline, allopurinol (10 mg/kg), or a Lactobacillus rhamnosus I21 fermentation product (150 mg or 200 mg resuspended in saline per mouse) prepared as described above. Ten animals were used for each experimental group and for the control group. The animals were sacrificed after one hour and the level of uric acid in their serum was analyzed.

Oc1ncnc2[nH]ncc12 [allopurinol]
serum uric acid concentration: 2.82 ± 0.28 mg/dL
